According to publication PMC12371494, “Discovery of YTHDF2 Ligands by Fragment-Based Design” (ACS Bio & Med Chem Au, 2025):
Like-named read-outs stand apart in the source and are kept apart here.

Molecular target: T1, GST-YTHDF2 (Homo sapiens, UniProt Q9Y5A9)
T1 construct: made in house
T1 sequence (Q9Y5A9 1-579): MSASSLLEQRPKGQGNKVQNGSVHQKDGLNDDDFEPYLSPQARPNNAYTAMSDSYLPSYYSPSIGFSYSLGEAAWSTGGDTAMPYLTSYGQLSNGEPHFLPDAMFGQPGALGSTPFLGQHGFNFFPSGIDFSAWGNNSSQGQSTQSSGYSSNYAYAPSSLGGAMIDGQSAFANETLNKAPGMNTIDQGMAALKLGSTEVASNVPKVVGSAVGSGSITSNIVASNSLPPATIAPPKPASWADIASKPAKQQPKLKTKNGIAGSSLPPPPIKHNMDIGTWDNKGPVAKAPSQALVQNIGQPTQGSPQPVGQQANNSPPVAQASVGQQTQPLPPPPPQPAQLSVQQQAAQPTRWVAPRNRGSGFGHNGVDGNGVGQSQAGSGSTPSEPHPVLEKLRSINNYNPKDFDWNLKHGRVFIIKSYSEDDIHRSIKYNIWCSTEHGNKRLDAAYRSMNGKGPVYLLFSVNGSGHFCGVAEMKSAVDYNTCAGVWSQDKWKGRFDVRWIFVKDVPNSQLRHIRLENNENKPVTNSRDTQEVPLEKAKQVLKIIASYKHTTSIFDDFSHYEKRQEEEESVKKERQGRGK
Experiment: HTRF-based binding assay, competition with m6A-oligoRNA, DF2
Details: for Residual signal at 1 mM concentration / % at 100 µM: HTRF; for Residual signal at 1 mM concentration: 1 mM compound, relative to control, average of two technical replicates, * = interference with the assay; for LE (ligand efficiency, DF2): LE = -RT ln IC50/HAC from HTRF IC50; for % at 100 µM: 100 µM compound

[1] = dose-response, competitor m6A-oligoRNA, read-out: DF2 IC50 (HTRF assay)

SMILES | Residual signal at 1 mM concentration [%] | also measured
Cc1cc(O)nc(NC=C2C(=O)NC(=S)NC2=O)n1 [Compound S50] | 9 | IC50 [1]: 57 µM
CN(C)c1ccc(C=C2C(=O)NC(=S)NC2=O)o1 [Compound S51] | 35 | 
COc1ccc(NC=C2C(=O)NC(=O)NC2=O)cc1 [Compound 12] |  | IC50: 40 µM; LE (ligand efficiency, DF2): 0.32 kcal/(mol HAC)
CNC=C1C(=O)NC(=S)NC1=O [Compound S47] |  | IC50 [1]: 91 µM
O=c1cc(O)cc(C(F)(F)F)[nH]1 [Compound S33] | > 90 | 
O=c1[nH]c(=S)[nH]c2ccsc12 [Compound S64] |  | % at 100 µM: 36%
O=c1[nH]c(=S)[nH]c2n[nH]cc12 [Compound 15] | 17 | LE (ligand efficiency, DF2): 0.51 kcal/(mol HAC); IC50 [1]: 86 µM
FC(F)(F)c1cc(-c2ccc3ccccc3c2)n[nH]1 [Compound S31] | > 90 | 
Cc1nc(O)c2sccc2n1 [Compound S27] | > 90 | 
OCCNc1ccc(Cl)nn1 [Compound S23] | > 90 | 
CC1CCc2c(sc3[nH]c(=S)[nH]c(=O)c23)C1 (centres unmarked) [Compound S60] | 24 | IC50 [1]: 80 µM
Cc1nc(O)c(C=Nc2ccc(Cl)cc2)c(O)n1 [Compound S8] | 21 | 
CNc1ncnc2[nH]nc(C)c12 [Compound S57] | 88 | 
O=C(CCc1n[nH]c(=S)[nH]c1=O)Nc1ccccc1 [Compound S55] |  | IC50 [1]: 190 µM
COc1cc2[nH]c(=O)[nH]c(=O)c2cc1OC [Compound S12] | 60 | 
CNc1ncccc1C(N)=O [Compound 5] | 88 | 
Nn1c(=S)[nH]c2sccc2c1=O [Compound S67] | 23 | % at 100 µM: 40%
CN(C)c1ccc(C=C2C(=O)NC(=S)NC2=O)cc1 [Compound 7] |  | IC50: 21 µM; LE (ligand efficiency, DF2): 0.34 kcal/(mol HAC)
O=c1[nH]c(=O)c2cn[nH]c2[nH]1 [Compound S58] | 47 | 
CCSc1nnc(NC(C)=O)s1 [Compound S7] | 60 | 
CCc1cc(NC(=O)c2ccc(C)nc2)[nH]n1 [Compound S34] | > 90 | 
CCNc1cc(=O)[nH]c(=O)[nH]1 [Compound S56] | 51 | 
NCCC1C(=O)NC(=S)NC1=O [Compound S42] |  | IC50 [1]: 330 µM
CCOc1ccc(C=C2C(=O)NC(=S)NC2=O)cc1Cl [Compound S52] | 12 | LE (ligand efficiency, DF2): 0.29 kcal/(mol HAC); IC50 [1]: 55 µM
Cc1ccccc1NN=C1C(=O)NC(=S)NC1=O [Compound 2] | 12 | IC50: 170 µM; LE (ligand efficiency, DF2): 0.29 kcal/(mol HAC)
CC(=O)N=c1[nH]nc(SCC(=O)NC2CCCCC2)s1 [Compound S10] | 50 | 
COC(=O)CNC(=O)COc1c[nH]c(C)cc1=O [Compound S15] | 75 | 

SMILES | Residual signal at 1 mM concentration [%] | also measured
O=c1[nH]c(=S)[nH]c2scc(-c3cccs3)c12 [Compound S70] | 49 | % at 100 µM: 45%
CN(C)c1cc(=O)[nH]c(=O)[nH]1 [Compound S19] | 85 | 
Cc1[nH]nc2ncnc(N)c12 [Compound 6] | 80 | 
NC(=O)c1cccnc1NCC1CC1 [Compound S39] | > 90 | 
O=c1cn[nH]c(=S)[nH]1 [Compound 13] | 5 | LE (ligand efficiency, DF2): 0.73 kcal/(mol HAC); IC50 [1]: 53 µM
O=c1[nH]c(=O)c2ccsc2[nH]1 [Compound S61] |  | IC50 [1]: 290 µM
CCN1CCc2c(sc3[nH]c(=S)n(N)c(=O)c23)C1 [Compound S69] |  | IC50 [1]: 23 µM
O=c1[nH]c(=S)[nH]c2nc[nH]c12 [Compound 16] | 2 | LE (ligand efficiency, DF2): 0.56 kcal/(mol HAC); IC50 [1]: 30 µM
COc1cccc2c1OCc1sc3[nH]c(=S)[nH]c(=O)c3c1-2 [Compound S73] | 64 | % at 100 µM: 22%
COc1ccc(C=C2C(=O)NC(=S)NC2=O)cc1C [Compound 10] | 48 | IC50: 28 µM; LE (ligand efficiency, DF2): 0.33 kcal/(mol HAC)
CC=CC=C1C(=O)NC(=O)NC1=O [Compound 11] | 30 | IC50: 29 µM; LE (ligand efficiency, DF2): 0.48 kcal/(mol HAC)
Cc1cccc(NC=C2C(=O)NC(=S)NC2=O)n1 [Compound 9] |  | IC50: 30 µM; LE (ligand efficiency, DF2): 0.34 kcal/(mol HAC)
Oc1ccnc(OC(F)F)c1 [Compound S21] | 87 | 
Cc1cc(=O)c2sccc2[nH]1 [Compound S22] | 89 | 
CCOC(=O)c1noc(C)n1 [Compound S28] | > 90 | 
Cc1cc2c(=O)n(C3CC3)c(=S)[nH]c2s1 [Compound S66] | 23 | % at 100 µM: 25%
CCc1cc2c(=O)[nH]c(SC)nc2s1 [Compound S65] |  | % at 100 µM: 68%
O=C1CC(=O)NC(=S)N1 [Compound S44] | 79 | 
O=c1[nH]c(=S)[nH]c2cnccc12 [Compound S62] |  | IC50 [1]: 170 µM
O=C1NC(=S)NC(=O)C1=NNc1cccc(C(=O)O)c1 [Compound 8] | 5 | IC50: 6 µM; LE (ligand efficiency, DF2): 0.36 kcal/(mol HAC)
O=C(Nc1nccs1)C(F)(F)F [Compound S20] | 87 | 
CN1C(=O)CC(=O)NC1=S [Compound S45] | 75 | 
Cc1nnc(N)n(N)c1=O [Compound S32] | > 90 | 
Nn1c(=S)[nH]c2scc(-c3ccccc3)c2c1=O [Compound S68] | 36 | % at 100 µM: 32%
O=c1[nH]c(=S)[nH]c2[nH]ccc12 [Compound S63] | 28 | % at 100 µM: 49%
COc1cccc(-c2ccc3c(N)n[nH]c3n2)c1 [Compound S30] | > 90 | 
